In US20240366930A1, “WEARABLE BIOELECTRONICS FOR PROGRAMMABLE DELIVERY OF THERAPY” (The Regents of the University of California, priority 2023, published 2024):

Key:
[1] = system: M1 and M2 macrophages in the wound; assay: Macrophage analysis of the wound (immunohistochemistry, M1 iNOS / M2 CD206 / F4/80); type: in vivo, mouse
Description: All cells (stained by DAPI, shown in blue), M1 (stained by iNOS, shown in green), M2 (stained by CD206, shown in red), and overall macrophages (stained by F4/80, shown in gray) were imaged and presented, FIG. 7b is an overlay of M1 and M2 staining, showing the distribution and ratio of macrophage subtypes, FIG. 7c is a box plot showing statistics of the M1/M2 ratio, which was 1.80+/−0.62 in the control group and 1.31+/−0.46 for the fluoxetine-treated group. […] The blue dot represents the M1/M2 ratio from the control group, and the red dot represents the fluoxetine-treated group. The dashed lines indicate the projected wound age, while the solid line represents the trend plotted from the data in the reference..
After analyzing the promising re-epithelization data, we delved deeper into another crucial indicator of wound healing: the M1/M2 macrophage ratio (FIG. 7). Macrophages play a pivotal role in the immune response and are crucially involved in the healing and regeneration of wounds. Although macrophages are phenotypically heterogeneous over a continuum, a simplified classification based on their polarized functions during the different stages of wound repair defines the M1 subtype that carries out pro-inflammatory activities and the M2 subtype that is anti-inflammatory and promotes tissue repair. […] Meanwhile, the number of M2-like macrophages increased in the center of the fluoxetine-treated wound, as depicted in FIG. 7A.

[2] = system: mouse wound model (6 mm punch biopsy wound held open by a silicone splint ring); assay: In vivo mouse wound model: re-epithelialization (H&E) after Flx+ delivery from wearable bioelectronic bandage
Description: (§1) FIG. 6 illustrates testing of the efficacy of the bioelectronic bandage in vivo on a mouse wound model. We created a 6 mm punch biopsy wound held open by a silicone splint ring to minimize wound contraction (FIG. 6A). Wound contraction is a major wound healing process in mice but not humans. It confounds the histological analysis of the wound reponse to therapy, particularly re-epithelialization [12b, 13]. A gas-permeable, transparent adhesive dressing, Tegaderm™, fixes the bioelectronic bandage to the mouse (FIG. 6A, right) so that the mouse can move around its cage without interference (FIG. 6B). This is possible because the lightweight bandage (2.5 g) represents less than 10% of the mouse weight. For this test, we programmed the bandage to deliver Flx^+ for three days for six hours per day (FIG. 6C).
(§2) We utilized a machine-learning algorithm reported to analyze images of wounds and evaluate their condition and healing progression (FIG. 6D). The algorithm automatically marked the wound area and analyzed the wound size (FIG. 6E). […] To further investigate healing, the wounds were fully excised at the end of the experiment, fixed, and stained with hematoxylin and eosin (H&E) to assess wound re-epithelialization (FIG. 6G-H). […] This variability allowed us to qualitatively correlate the dose of Flx^+ and wound healing as measured by the percentage of re-epithelization (FIG. 6J, right). […]

[3] = system: mouse wound model (6 mm punch biopsy wound); assay: Wound size analysis from wound images by machine-learning algorithm; type: in vivo; details: fluoxetine-treated wounds, similar trend to control
Description: as §1, §2

SMILES: CNCCC(Oc1ccc(C(F)(F)F)cc1)c1ccccc1 (stereo not shown) [fluoxetine]
- decrease in M1/M2 ratio compared to control ([1]; day 3, n=13 mice, P<0.05): 27.2%
- M1/M2 ratio ([1]; fluoxetine-treated group, day 3, n=13 mice): 1.31+/−0.46
- number of M2-like macrophages in the center of the wound ([1]; fluoxetine-treated wound, day 3): increased
- M1 macrophage infiltration of the center of the wound ([1]; three days after injury, control wound significantly infiltrated): no change
- increase in re-epithelialization compared to control ([2]; Flx+ delivered from the bioelectronic bandage, three days, six hours per day, H&E of excised wounds, P<0.05): 39.9%
- reepithelization in mouse 2 (>300 nMol per day Flx+) versus mouse 15 (10× smaller dose) ([2]; qualitative dose comparison, bioelectronic bandage): much faster
- wound size trend over time [3]: slight increase in size at day 1, followed by a decrease on subsequent days
